Read-outs that look alike come from different tables or passages of the source.
Columns and labels:
HEK293 cells = test: CellTiter-Glo 2.0 cell viability assay, HEK293; format: cell-based, human; settings: Homo sapiens; HEK293, 48 Hours, mean ±S.E.M, N = 3; read-out: pEC50 (cell viability) (converted)
[1] = test system: proteome of heterozygous BromoTag-Brd2 HEK293 cells; test: Multiplexed TMT labeling mass spectrometry proteomics; format: cell-based, human; settings: 1 μM, 2 h
Method: To do this, we subjected our heterozygous BromoTag-Brd2 HEK293 cell line to a 1 μM treatment of 46, its non-degrading control 52, or vehicle (DMSO) for 2 h prior to harvest. The harvested lysate was then subjected to multiplexed tandem mass tag (TMT) labeling mass spectrometry to enable quantitative and unbiased analysis of protein levels in each condition.
CRISPR-modified BromoTag-Brd2 HEK293 cells (5 × 10^6) were seeded on a […] 24 h before treatment. The cells were treated with either DMSO, 1 μM AGB1, or 1 μM cis-AGB1. After 2 h of treatment, the cells were washed twice with PBS. The cells were lysed in 150 μL of 100 mM TEAB and 5% (w/v) sodium dodecyl sulfate. The lysate was sonicated for 10 s and then centrifuged at 15,000g for 5 min with the supernatant collected post-centrifugation. The samples were then quantified using a micro-BCA protein assay kit (Thermo Fisher Scientific); 300 μg of each sample was then reduced, alkylated, and then digested using the Strap mini protocol (protifi) as described by the manufacturer (protifi) with some modification. The samples were double-digested with trypsin (1:40) first overnight and then for another 6 h with the same ratio (1:40) in 50 mM TEAB buffer. The peptides were quantified using a quantitative fluorometric peptide assay (Thermo Fisher Scientific). […]

BromoTag-Brd2 [2] = test: Dose–response degradation assay (western blot, 6 h) in heterozygous BromoTag-Brd2 HEK293 cells; format: cell-based, human; settings: 6 h; for pDC50 (Ab: Brd^4BD2 L387A) / pDC50 (Ab: BromoTag-Brd2): eight-point 10 μM to 1 nM, mean ±S.E. of two repeats; for DC50: read-out: DC50 of BromoTag-Brd2 degradation (DC50, 6h), single stereoisomers
VHL (VCB protein) = molecular target: T1, VHL (VCB protein) (Homo sapiens, UniProt P40337); test: FP competitive binding assay, binary binding; settings: compound alone; mean ±S.E.M., N = 4; read-out: binary affinity to VHL Kd
T1 construct: N-terminally His6-tagged VHL (54–213); His6 (N, cleaved yes); made in house; host or cells: E. coli

VHL with Brd4^BD2 L387A = molecular target: T2, VHL with Brd4^BD2 L387A (Homo sapiens, UniProt O60885+P40337, L387A); test: FP competitive binding assay, ternary complex binding (compound preincubated with Brd4^BD2 L387A); settings: for α (FP binding): cooperativity, Kd binary/Kd ternary, supplementary CSV; for Kd: preincubated with Brd4^BD2 L387A, mean ±S.E.M., N = 4, read-out: ternary binding affinity Kd; for cooperativity (α): α = Kd binary/Kd ternary
T2 construct: N-terminally His6-tagged VHL (54–213); His6 (N, cleaved yes); made in house; host or cells: E. coli

22RV1 cells = test: CellTiter-Glo 2.0 cell viability assay, 22RV1; format: cell-based, human; settings: Homo sapiens; 22RV1, 48 Hours, mean ±S.E.M, N = 2; read-out: pEC50 (cell viability) (converted)
BromoTag-Brd2 [3] = test: Time course degradation assay (western blot, 0–36 h) in heterozygous BromoTag-Brd2 HEK293 cells; format: cell-based, human; settings: 500 nM 47, 1 μM 48, over 36 h
Method: Heterozygous BromoTag-Brd2 HEK293 cells were plated at a density of 5 × 10^5 cells per well of a six-well healthy plate a day prior to initiating the time course assay. […] The time point range was between 0 and 36 h. Treatment was applied in a staggered fashion to enable all time points to be harvested at the same time.
(§1) All cells were harvested on ice with RIPA lysis and extraction buffer (Thermo Fisher Scientific, 89901) supplemented with protease inhibitor cocktail (Merck, 11697498001) and Benzonase Nuclease (Sigma, E1014) before being stored at −20 °C prior to use. Total protein quantity was determined using the BCA protein assay (#23225, Pierce, Rockford, Illinois). The protein concentration was determined using the BCA assay (Thermo Fisher Scientific, 23225). The samples were then prepared and loaded onto NuPAGE 4–12% bis–tris Midi gels (Thermo Fisher Scientific, WG1403A), followed by the transfer of proteins onto nitrocellulose membranes (EMD Millipore). The membranes were blocked for 1 h prior to incubation with the primary antibodies using 5% Milk TBST. […] All western blots were analyzed for band intensities using Image Lab from Bio-Rad (LI-COR, Biosciences). The data extracted from these blots were then plotted and analyzed using Prism (v. 8.2.0, GraphPad).

MV-4-11 cells = test: CellTiter-Glo 2.0 cell viability assay, MV-4-11; format: cell-based, human; settings: Homo sapiens, MV4-11
[4] = set-up: method as in earlier work; settings: mice, cited from earlier work
[5] = test system: Brd4^BD2 wild-type domain; set-up: method as in PMID 32756710; settings: cited from earlier work
[6] = test system: BET proteins: Brd2, Brd3, and Brd4; test: Single-concentration western blot screen, BET proteins; format: cell-based, human; settings: 1 μM, 6 h
Method: With this initial library in hand, we set out to evaluate the activity and selectivity of our I-BET-based B&H–PROTACs by treating our heterozygous BromoTag-Brd2 HEK293 cells with 1 μM of compounds 15–17 or 1 μM of control compounds MZP-15 (14), MZ1 (1), and cis-MZ1 for 6 h, which is the sufficient time to achieve effective MZ1-induced BET protein degradation (Figure 4A). The cells were harvested, and the subsequent lysate was analyzed via western blot using antibodies against BET proteins: Brd2, Brd3, and Brd4 (Figure 4A).
as §1, with “Millipore).” for “Millipore). The membranes were blocked for 1 h prior to incubation with the primary antibodies using 5% Milk TBST.”

## CC[C@@H](C(=O)OCCOCCOCCOCC(=O)N[C@H](C(=O)N1C[C@@H](O)C[C@H]1C(=O)NCc1ccc(-c2scnc2C)cc1)C(C)(C)C)[C@@H]1N=C(c2ccc(Cl)cc2)c2c(sc(C)c2C)-n2c(C)nnc21 [cis-AGB1 (52), (S)-13-((2S,4S)-4-Hydroxy-2-((4-(4-methylthiazol-5-yl)benzyl)carbamoyl)pyrrolidine-1-carbonyl)-14,14-dimethyl-11-oxo-3,6,9-trioxa-12-azapentadecyl (R)-2-((S)-4-(4-chlorophenyl)-2,3,9-trimethyl-6H-thieno[3,2-f][1,2,4]triazolo[4,3-a][1,4]diazepin-6-yl)butanoate]
HEK293 cells
  EC50: > 10000 nM
[1]
  proteins significantly degraded among the 6621 proteins quantified: No significant degradation

## CC[C@@H](C(=O)NCCOCCOCCOCC(=O)N[C@H](C(=O)N1C[C@H](O)C[C@H]1C(=O)NCc1ccc(-c2scnc2C)cc1)C(C)(C)C)[C@@H]1N=C(c2ccc(Cl)cc2)c2c(sc(C)c2C)-n2c(C)nnc21 [AGB3 (48), (2S,4R)-1-((2S,17R)-2-(tert-Butyl)-17-((S)-4-(4-chlorophenyl)-2,3,9-trimethyl-6H-thieno[3,2-f][1,2,4]triazolo[4,3-a][1,4]diazepin-6-yl)-4,16-dioxo-6,9,12-trioxa-3,15-diazanonadecanoyl)-4-hydroxy-N-(4-(4-methylthiazol-5-yl)benzyl)pyrrolidine-2-carboxamide]
BromoTag-Brd2 [2]
  pDC50 (Ab: Brd^4BD2 L387A): 6.5 ± 0.3
  pDC50 (Ab: BromoTag-Brd2): 6.7 ± 0.1
  DC50: 210 to 290 nM
VHL (VCB protein)
  Kd: 102 nM
VHL with Brd4^BD2 L387A
  α (FP binding): 10.9
  Kd: 9 nM
  cooperativity (α): 10.9

## Cc1ncsc1-c1ccc(CNC(=O)[C@@H]2C[C@H](O)CN2C(=O)[C@@H](NC(=O)COCCOCCOCCNC(=O)C[C@@H]2N=C(c3ccc(Cl)cc3)c3c(sc(C)c3C)-n3c(C)nnc32)C(C)(C)C)cc1 [cis-MZ1]
22RV1 cells
  EC50: > 10000 nM

## CC[C@@H](C(=O)OCCOCCCOCC(=O)N[C@H](C(=O)N1C[C@H](O)C[C@H]1C(=O)N[C@@H](C)c1ccc(-c2scnc2C)cc1)C(C)(C)C)[C@@H]1N=C(c2ccc(Cl)cc2)c2c(sc(C)c2C)-n2c(C)nnc21 [AGB2 (47), 2-(3-(2-(((S)-1-((2S,4R)-4-Hydroxy-2-(((S)-1-(4-(4-methylthiazol-5-yl)phenyl)ethyl)carbamoyl)pyrrolidin-1-yl)-3,3-dimethyl-1-oxobutan-2-yl)amino)-2-oxoethoxy)propoxy)ethyl (R)-2-((S)-4-(4-chlorophenyl)-2,3,9-trimethyl-6H-thieno[3,2-f][1,2,4]triazolo[4,3-a][1,4]diazepin-6-yl)butanoate]
BromoTag-Brd2 [2]
  pDC50 (Ab: Brd^4BD2 L387A): 9.0 ± 0.4
  pDC50 (Ab: BromoTag-Brd2): 8.6 ± 0.2
  DC50: 1 to 3 nM
BromoTag-Brd2 [3]
  extent of BromoTag-Brd2 degradation in the time course experiment: near-complete target degradation
VHL (VCB protein)
  Kd: 45 nM
VHL with Brd4^BD2 L387A
  α (FP binding): 3.6
  Kd: 12 nM
  cooperativity (α): 3.6

## Cc1ncsc1-c1ccc(CNC(=O)[C@@H]2C[C@@H](O)CN2C(=O)[C@@H](NC(=O)COCCOCCOCCNC(=O)C[C@@H]2N=C(c3ccc(Cl)cc3)c3c(sc(C)c3C)-n3c(C)nnc32)C(C)(C)C)cc1 [MZ1 (1)]
MV-4-11 cells; MV-4-11, 24 Hours, mean ±S.E.M, N = 2, read-out: pEC50 (cell viability) (converted)
  EC50: 25.1 nM
MV-4-11 cells; MV-4-11 cells, read-out: EC50 (cell viability)
  EC50: ~20 nM
22RV1 cells
  EC50: 5010 nM
[4]; IV (5 mg/kg), 5 mg/kg
  T1/2: 1.04 h
[4]; SC (5 mg/kg)
  T1/2: 2.95 h

## CC[C@@H](C(=O)OC)[C@@H]1N=C(c2ccc(Cl)cc2)c2c(sc(C)c2C)-n2c(C)nnc21 [ET-JQ1-OMe]
[5]
  binding to the wild-type domain: undetectable binding

## COc1ccc2c(c1)C(c1ccc(Cl)cc1)=NC(CC(=O)NCCOCCOCCOCC(=O)N[C@H](C(=O)N1C[C@H](O)C[C@H]1C(=O)NCc1ccc(-c3scnc3C)cc1)C(C)(C)C)c1nnc(C)n1-2 (stereo partly drawn) [compound 14, (2S,4R)-1-((2S)-2-(tert-Butyl)-17-(6-(4-chlorophenyl)-8-methoxy-1-methyl-4H-benzo[f][1,2,4]triazolo[4,3-a][1,4]diazepin-4-yl)-4,16-dioxo-6,9,12-trioxa-3,15-diazaheptadecanoyl)-4-hydroxy-N-(4-(4-methylthiazol-5-yl)benzyl)pyrrolidine-2-carboxamide]
[6]
  degradation activity across all the three BET family members relative to 1: significant lower activity

Reference: paper PMC8558867, “Development of BromoTag: A “Bump-and-Hole”–PROTAC System to Induce Potent, Rapid, and Selective Degradation of Tagged Target Proteins” (Journal of Medicinal Chemistry, 2021)
